In patent US12329149B2, “Apparatus and methods for irradiating organ perfusates” (University Health Network, priority 2017, dated 2025):

What was measured:
[1] = tested on: HCV; assay: EVLP of HCV+ human donor lungs with light therapy, viral load by RealTime PCR
Description: (§1) Human Lung Studies: effect of EVLP and light therapies into HCV titers: In order to evaluate the effect of EVLP itself and also as a platform for light-based therapies against HCV titers in the lung tissue and perfusate solution, 9 rejected human lungs from NAT+ HCV donors. Donor lungs were recovered using standard protocols and flushed with cold Low-Potassium Dextran (LPD) solution and preserved at 4° C. as routine clinical practice. Following the pre-EVLP flush, the lungs were placed in 2 independent EVLP circuits for 9 hours. One lung was the control group (standard EVLP protocol, (n=9), whereas the other lung was randomly subjected to different treatment conditions (n=3, each) (FIG. 13A): (1) Intense lung wash (replacement of perfusate solution and circuit after 3 h of EVLP); (2) Ultra Violet C (UVC) light (260 nm, 4 W) applied to EVLP perfusate; (3) Photodynamic Therapy (PDT), using Methylene Blue (MB) diluted in the perfusion solution (1 umol/L) associated with red light irradiation (630 nm, 20 mW/cm^2). The advantage of such design is that both control and treated lungs come from the same donor (same virus load as baseline). Tissue biopsies were collected from lower, and upper lobes of the lungs at baseline and every 3 h during perfusion and perfusate samples were collected hourly. All samples were assessed for viral load quantification using RealTime PCR assay. The results were normalized for percentage of viral load decrease. To translate the application of light therapies to an EVLP system, a specific device suitable to be inserted inline in the EVLP circuit where different light wavelengths could be applied to treat the perfusion solution.

[2] = Ex vivo lung function during 9 hours of EVLP of human donor lungs; conditions: PDT (MB 1 umol/L + red light) applied to circuit, 9 hours EVLP
Description: as §1, with “The results were normalized for percentage of viral load decrease. To translate the application of light therapies to an EVLP system, a specific device suitable to be inserted inline in the EVLP circuit where different light wavelengths could be applied to treat the perfusion solution.” left out

[3] = Pre-clinical large animal lung transplant safety model (EVLP 6 h, left lung transplant, 4 h reperfusion); assay type: in vivo, Yorkshire male domestic pigs; conditions: PDT MB 1 umol/L + red light vs control and UVC
Description: In order to translate such approach to the clinical EVLP setting, the safety of applying UVC and PDT during EVLP was assessed using a pre-clinical large animal transplant model (FIG. 15D).
In this model, Yorkshire male domestic pigs (30-35 kg) were used, under anesthesia and mechanic ventilation. After lung withdrawal, lungs were preserved for 2 hours at 4° C., followed by EVLP for 6 hours. During EVLP, pig lungs were randomized for three groups (n=4, each): (1) Control (standard EVLP technique); (2) Ultra Violet C; (3) Photodynamic Therapy (PDT), using Methylene Blue (MB) diluted in the perfusion solution (1 umol/L) associated with red light irradiation. During EVLP, lung physiology was assessed (pulmonary vascular resistance, pulmonary artery pressure, left atrium (venous) pressure, peak airway pressure, plateau pressure, dynamic compliance, static compliance and gas exchange function-PO2); There was no difference in ex vivo lung function during 6 hours amongst the groups. After EVLP, the left lung was transplanted followed by 4 hours of reperfusion. Post-transplant blood gas samples were collected of the transplanted graft upper and lower pulmonary veins and the average of the partial pressure of arterial oxygen (PaO2)/fraction of inspired oxygen (FiO2) was calculated.

[4] = tested on: HCV JFH-1 strain; assay: Mini-EVLP circuit spiked with HCV JFH-1, infectivity loss in Huh 7.5.1 hepatocyte culture
[5] = tested on: Staphylococcus aureus, Stenotrophomonas maltophilia, and Pseudomonas aeruginosa; conditions: antibiotic 333 mg/L, LB Agar plates, UVC group 0
Description: Methods: A mixture of low-potassium-dextran lung perfusion solution and Lysogeny Broth (LB) media was spiked with 1,0×10^5 CFU/mL of Staphylococcus aureus, Stenotrophomonas maltophilia, and Pseudomonas aeruginosa. A mini EVLP and UVC irradiator was used (FIG. 7). After priming, the circuits were divided into three groups (n=4, each) and evaluated for 180 minutes: 1) Control (no treatment); 2) UVC (236 nm, 9 J/cm^2) and 3) Antibiotic (Imipenem/Cilastatin, 333 mg/L). Samples were taken at different timepoints and analysed, using LB Agar culture plates and bacterial DNA qPCR assay.

CN(C)c1ccc2nc3ccc(=[N+](C)C)cc-3sc2c1 [Methylene blue]
decrease of HCV titers in human donor lungs ([1]; PDT using MB as photosensitizer, summary statement): 98%
HCV titers in lung tissue, % reduction ([1]; PDT: methylene blue 1 umol/L + red light 630 nm, 20 mW/cm^2, 9 h EVLP, lung tissue, control 75.46%): 90.96%
perfusate HCV titres (% reduction from baseline) ([1]; PDT: methylene blue 1 umol/L + red light 630 nm/20 mW/cm^2, 9 h EVLP, perfusate, control 69.49%): 97.87%
ex vivo lung function during EVLP (delta P/F ratio, peak airway pressure, dynamic compliance) vs control lung [2]: no significant difference
post-transplant PaO2/FiO2 after 4 h of reperfusion, among the groups ([3]; pig left lung transplant): no significant difference
ex vivo lung function during 6 hours EVLP amongst the groups ([3]; pig lungs): no difference
perfusion time after which no infectivity was observed ([4]; PDT group, red light 630 nm, 20 mW/cm^2, JFH-1 1.5×10^6 copies/mL, 37° C.): 15 min
effect on HCV infectivity with ambient (room) light activation compared with red light ([4]; regular room light instead of red light): weaker than with red light

Imipenem/Cilastatin
bacterial growth after 180 minutes of treatment [5]: 15±2.3 colonies/plate
